Here are results for two molecules from patent US20140100217A1, “[…] OF PROLINE-RICH PEPTIDES AND THEIR USE” (priority 2012, published 2014).

The target in test [1] is T1, VASP-EVH1 domain (Homo sapiens, UniProt P50552).
T1 construct: ligand peptides with the VASP-EVH1 domain in solution
The test is classed as binding.

The target of test [2] is T1, VASP-EVH1 domain. Briefly: Binding affinity of ligand peptides by kinetic Biacore method. As to the method: With the aid of the synthetic compound 85, ligand peptides with partially or completely replaced proline sequences were synthesized by way of example and investigated for their interaction with the EVH1 domain (pp=component 85). […] The binding affinities were determined by means of NMR titration, the kinetic Biacore method or by means of fluorescence titration.

No end group written: not given here.

T1 sequence (P50552 2-113): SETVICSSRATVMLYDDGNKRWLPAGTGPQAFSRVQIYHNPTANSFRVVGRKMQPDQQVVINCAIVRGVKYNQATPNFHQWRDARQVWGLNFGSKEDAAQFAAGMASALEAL

As to FPPPPT [FPPPPT], in test [1], the “binding affinity (KD)” value is “measurable affinity for the VASP-EVH1 domain could no longer be determined”.

In test [2], `CC(C)C[C@H](NC(=O)[C@H](CCC(=O)O)NC(=O)[C@H](CC(=O)O)NC(=O)[C@H](CCC(=O)O)NC(=O)[C@@H](NC(=O)[C@@H]1CCCN1C(=O)[C@@H]1CC[C@@H]2C=C[C@@H](C)[C@H](NC(=O)[C@@H]3CCCN3C(=O)[C@H](Cc3c[nH]c4ccccc34)NC(=O)[C@H](CCC(=O)O)NC(=O)[C@H](Cc3ccccc3)NC(=O)[C@@H](N)CO)C(=O)N21)[C@@H](C)O)C(=O)O` [SFEWPppPTEDEL (II)] displayed an equilibrium dissociation constant (Kd) of 3.7 to 12.5 µM.

The Kd is a measure of binding affinity in units of concentration.
